# According to ChEMBL document CHEMBL5506010, “Butyrylcholinesterase-Activated Near-Infrared Fluorogenic Probe for In Vivo Theranostics of Alzheimer's Disease” (J Med Chem, 2024):
# The source made the active and inactive calls. The rule behind the calls is not given here.
# Key:
# PC-12 [1] = test: Binding affinity to BChE in rat PC-12 cells at 10 uM incubated for 1 hrs by fluorescence based confocal laser scanning microscopic analysis; format: cell-based
# PC-12 [2] = test: Binding affinity to BChE in rat PC-12 cells assessed as increase in fluorescence intensity at 10 uM incubated for 24 hrs by fluorescence based confocal laser scanning microscopic analysis; format: cell-based
# PC-12 [3] = test: Binding affinity to BChE in rat PC-12 cells assessed as increase in fluorescence intensity preincubated with S11-1014 for 24 hrs followed by compound addition and measured after 1 hrs by fluorescence based confocal laser scanning microscopic analysis; format: cell-based
# Acetylcholinesterase [4] = target: T1, Acetylcholinesterase (Homo sapiens, UniProt P22303); test: Inhibition of human AChE using acetylthiocholine iodide as substrate at 10 uM preincubated for 5 mins followed by substrate addition and measured immediately by Ellmans method relative to control
# T1 sequence (P22303 whole entry): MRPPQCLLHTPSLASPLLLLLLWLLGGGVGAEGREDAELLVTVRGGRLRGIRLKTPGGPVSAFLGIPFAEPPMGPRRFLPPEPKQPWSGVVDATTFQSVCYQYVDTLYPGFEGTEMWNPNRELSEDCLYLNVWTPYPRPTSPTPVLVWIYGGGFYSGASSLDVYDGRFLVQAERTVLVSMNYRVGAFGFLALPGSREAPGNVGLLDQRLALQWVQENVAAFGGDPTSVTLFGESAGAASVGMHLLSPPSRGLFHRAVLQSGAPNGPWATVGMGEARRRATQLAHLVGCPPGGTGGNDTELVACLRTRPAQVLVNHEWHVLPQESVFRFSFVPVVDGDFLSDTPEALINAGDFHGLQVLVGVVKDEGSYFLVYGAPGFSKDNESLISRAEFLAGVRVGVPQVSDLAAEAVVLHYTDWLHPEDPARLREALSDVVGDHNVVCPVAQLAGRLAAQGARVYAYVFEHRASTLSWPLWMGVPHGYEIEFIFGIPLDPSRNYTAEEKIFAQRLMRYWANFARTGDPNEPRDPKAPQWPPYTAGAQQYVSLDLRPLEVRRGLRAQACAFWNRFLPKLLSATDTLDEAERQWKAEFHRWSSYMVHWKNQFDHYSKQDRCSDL
# [5] = Neurotoxicity in mouse HT-22 cells assessed as reduction in cell viability at 50 uM; format: toxicity, cell-based; conditions: ht-22, 50 µM
# SH-SY5Y [6] = test: Neuroprotective activity against amyloid-beta (1 to 42)-induced human SH-SY5Y cells assessed as increase in ACh level in culture medium at 10 to 20 uM incubated for 24 hrs by ELISA; format: functional, cell-based; conditions: dose 10-20 µM
# SH-SY5Y [7] = test: Neuroprotective activity against amyloid-beta (1 to 42)-induced human SH-SY5Y cells assessed as decrease in amyloid beta (1 to 42) level in culture medium at 10 to 20 uM incubated for 24 hrs by ELISA; format: functional, cell-based; conditions: dose 10-20 µM
# [8] = target: Cholinesterase (Mus musculus) (UniProt Q03311); test: Binding affinity to BChE in mouse HT-22 cells assessed as increase in fluorescence at 10 uM incubated for 1 hrs in presence of DCF by laser confocal imaging analysis; format: cell-based
# Sequence of Cholinesterase (Mus musculus) (Q03311 whole entry): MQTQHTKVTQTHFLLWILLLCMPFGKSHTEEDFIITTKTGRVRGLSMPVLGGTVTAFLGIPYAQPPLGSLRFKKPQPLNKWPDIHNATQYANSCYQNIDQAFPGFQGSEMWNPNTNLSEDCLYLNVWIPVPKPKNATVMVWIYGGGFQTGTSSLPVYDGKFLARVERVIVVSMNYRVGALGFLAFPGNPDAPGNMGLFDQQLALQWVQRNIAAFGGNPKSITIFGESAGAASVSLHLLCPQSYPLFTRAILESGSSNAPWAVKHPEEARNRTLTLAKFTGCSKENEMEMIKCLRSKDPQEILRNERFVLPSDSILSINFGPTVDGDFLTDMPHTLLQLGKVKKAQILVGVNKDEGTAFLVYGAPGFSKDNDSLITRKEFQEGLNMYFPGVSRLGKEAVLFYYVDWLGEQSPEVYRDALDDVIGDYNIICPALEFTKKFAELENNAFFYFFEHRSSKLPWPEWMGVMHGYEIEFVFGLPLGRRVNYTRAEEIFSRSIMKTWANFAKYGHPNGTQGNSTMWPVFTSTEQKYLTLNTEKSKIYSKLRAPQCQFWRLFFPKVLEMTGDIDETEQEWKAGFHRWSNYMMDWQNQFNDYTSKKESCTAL
# [9] = Stability of compound at pH 12 measured within 3 mins by microplate reader analysis; format: physicochemical; conditions: buffer, pH 12, 0.05 h
# [10] = Stability of compound in male ICR mouse brain at 100 uM, iv measured at 5 to 60 mins by fluorescence microplate reader; format: ADME, organism-based; conditions: time 5-60 min
# [11] = Stability of compound in male ICR mouse plasma at 100 uM, iv measured after 30 mins by fluorescence microplate reader; format: ADME, organism-based; conditions: 0.5 h
# [12] = Drug uptake in brain of 6 weeks old AD-mouse model assessed as increase in fluorescence at 100 uM, iv preadministered with tacrine for 4 hrs followed by compound administration by fluorescence scanning analysis; format: ADME, organism-based; conditions: in vivo
# Mus musculus [13] = test: Antialzheimer activity in APP/PS1 transgenic AD mouse model assessed as increase in alteration performance administered intravenously once every 2 days for 10 times and measured on day 26 by Y maze test; format: functional, organism-based; conditions: route iv, time 26.0 day
# Mus musculus [14] = test: Antialzheimer activity in APP/PS1 transgenic AD mouse model assessed as improvement in memory administered intravenously once every 2 days for 10 times and measured on day 26 by Y maze test; format: functional, organism-based; conditions: route iv, time 26.0 day
# Mus musculus [15] = test: Antialzheimer activity in APP/PS1 transgenic AD mouse model assessed as decrease in amyloid beta (1 to 42) level administered intravenously once every 2 days for 10 times and measured on day 30 by ELISA; format: functional, organism-based; conditions: route iv, time 30.0 day
# [16] = Toxicity in APP/PS1 transgenic AD mouse model assessed as kidney damage administered intravenously once every 2 days for 10 times and measured on day 30 by H and E staining based analysis; format: tissue-based; conditions: in vivo, iv, 720 h, time 30 day
# [17] = Toxicity in APP/PS1 transgenic AD mouse model assessed as spleen damage administered intravenously once every 2 days for 10 times and measured on day 30 by H and E staining based analysis; format: tissue-based; conditions: in vivo, iv, 720 h, time 30 day
# [18] = Toxicity in APP/PS1 transgenic AD mouse model assessed as lung damage administered intravenously once every 2 days for 10 times and measured on day 30 by H and E staining based analysis; format: tissue-based; conditions: in vivo, iv, 720 h, time 30 day
# Cholinesterase [19] = target: T2, Cholinesterase (Homo sapiens, UniProt P06276); test: Binding affinity to BChE (unknown origin) in PBS assessed as red-shift in maximum absorption to 680 nm by UV/vis absorption analysis
# T2 sequence (P06276 whole entry): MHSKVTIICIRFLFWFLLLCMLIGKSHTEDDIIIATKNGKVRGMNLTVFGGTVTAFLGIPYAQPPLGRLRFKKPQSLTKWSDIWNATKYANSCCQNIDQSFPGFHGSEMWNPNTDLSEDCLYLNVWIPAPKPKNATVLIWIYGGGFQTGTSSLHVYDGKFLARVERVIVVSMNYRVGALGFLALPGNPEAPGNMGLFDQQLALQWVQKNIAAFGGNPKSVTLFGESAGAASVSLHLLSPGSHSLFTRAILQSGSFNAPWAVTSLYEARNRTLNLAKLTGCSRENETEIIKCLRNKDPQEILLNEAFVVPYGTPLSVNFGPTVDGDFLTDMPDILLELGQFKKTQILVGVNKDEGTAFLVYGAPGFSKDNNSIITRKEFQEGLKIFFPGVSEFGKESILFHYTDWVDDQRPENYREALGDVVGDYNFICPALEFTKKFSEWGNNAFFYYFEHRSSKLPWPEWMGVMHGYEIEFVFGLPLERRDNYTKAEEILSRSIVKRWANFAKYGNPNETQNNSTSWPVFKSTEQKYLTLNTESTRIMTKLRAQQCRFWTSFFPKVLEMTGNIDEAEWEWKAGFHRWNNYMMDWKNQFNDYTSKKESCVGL
# Cholinesterase [20] = target: T2, Cholinesterase; test: Binding affinity to BChE (unknown origin) in PBS assessed as maximum emission wavelength at 710 nm by fluorescence spectra analysis
# Cholinesterase [21] = target: T2, Cholinesterase; test: Binding affinity to BChE (unknown origin) in PBS assessed as fold change in fluorescence intensity at 710 nm by fluorescence spectra analysis
# [22] = Selectivity ratio of fluorescence intensity for binding affinity to AChE (unknown origin) in PBS to fluorescence intensity for binding affinity to BChE (unknown origin) in PBS
# Homo sapiens [23] = species on record: Homo sapiens; test: Binding affinity to carboxylesterase (unknown origin) by fluorescence analysis
# Homo sapiens [24] = species on record: Homo sapiens; test: Binding affinity to lysozyme (unknown origin) by fluorescence analysis
# Acetylcholinesterase [25] = target: T1, Acetylcholinesterase; test: Binding affinity to AChE (unknown origin) by fluorescence analysis
# Cholinesterase [26] = target: T2, Cholinesterase; test: Binding affinity to BChE (unknown origin) assessed as enzyme mediated compound hydrolysis measured after 1 min by HPLC analysis relative to control; design: scale not given: the % may be the effect or the level left
# Cholinesterase [27] = target: T2, Cholinesterase; test: Binding affinity to BChE (unknown origin) assessed as enzyme mediated compound hydrolysis measured after 5 min by HPLC analysis relative to control; design: scale not given: the % may be the effect or the level left
# Cholinesterase [28] = target: T2, Cholinesterase; test: Binding affinity to BChE (unknown origin) in PBS assessed as Michaelis-menten constant by fluorometric method
smiles,measurement,setting,value
CCN(CC)Cc1ccccc1CNC(=O)c1cccc(NC(=O)c2cccc(C(=O)NCCn3cc(CCC[N+]4=C(/C=C/C5=C6Oc7cc(OC(=O)C8CC8)ccc7C=C6CCC5)C(C)(C)c5ccccc54)nn3)c2)c1.[I-],Activity,PC-12 [1],Active
same,Activity,PC-12 [2],Active
same,Activity,PC-12 [3],inactive
same,inhibition,Acetylcholinesterase [4],12.3%
same,Activity,[5],Non-Toxic
same,Activity,SH-SY5Y [6],Active
same,Activity,SH-SY5Y [7],Active
same,Activity,[8],inactive
same,Stability,[9],Unstable
same,Stability,[10],Stable
same,Stability,[11],Stable
same,Drug uptake,[12],Not Active
same,Activity,Mus musculus [13],Active
same,Activity,Mus musculus [14],inactive
same,Activity,Mus musculus [15],Active
same,Activity,[16],Non-Toxic
same,Activity,[17],Non-Toxic
same,Activity,[18],Non-Toxic
same,Activity,Cholinesterase [19],Active
same,Activity,Cholinesterase [20],Active
same,fold change (FC),Cholinesterase [21],24
same,Selectivity ratio,[22],22.8
same,Activity,Homo sapiens [23],inactive
same,Activity,Homo sapiens [24],inactive
same,Activity,Acetylcholinesterase [25],inactive
same,Activity,Cholinesterase [26],50%
same,Activity,Cholinesterase [27],> 90%
same,Activity,Cholinesterase [28],12.9 µM
